Measured values taken from PMC12163635, “Synthetic Retinoids for the Modulation of Genomic and Nongenomic Processes in Neurodegenerative Diseases” (ACS Omega, 2025).
pEC50, pKd: −log10 of the molar value.

What was measured:
[1] = test system: ERK1/2 phosphorylation in SH-SY5Y cells; assay: ERK1/2 phosphorylation (nongenomic response), AlphaScreen SureFire; type: cell-based, human; parameters: nongenomic response Emax (±95% CI): unit not given here; conditions: for pEC50: Homo sapiens, read-out: nongenomic response EC50 (±95% CI); for nongenomic E max compared with ATRA: nonoverlapping 95% CI
Method: After screening the retinoids for genomic responses, they were tested for their nongenomic ability to rapidly phosphorylate ERK1/2 in the SH-SY5Y cell line. ATRA is known as a potent activator of ERK1/2 − and was used as the standard for comparison. […] The efficacies of the remaining seven retinoids were similar to ATRA.
SH-SY5Y cell line as used in ERK phosphorylation and neurite outgrowth assays described below. The cells were grown in DMEM containing 10% FCS at 37 °C with 5% CO2. The medium was changed three times a week and the cells were passaged at 70% confluence using 0.05% trypsin-EDTA.
To quantify ERK1/2 phosphorylation, SH-SY5Y cells (100,000 cells/well) were plated onto 96-well plates and serum-starved for 24 h in DMEM. Cells were assayed in serum-free DMEM and stimulated for 60 min at 37 °C in a humidified atmosphere. Retinoids were tested at concentrations ranging from 10 to 4 to 10–11 M and at a final concentration of 0.1% DMSO. At the end of the assay, the medium was removed, and cells were lysed with lysis buffer supplied in the AlphaScreen SureFire ERK1/2 kit (PerkinElmer). The assay was performed in 384-well white Proxiplates according to the manufacturer’s instructions and using the beads supplied in the protein A general IgG detection kit (PerkinElmer). Briefly, 4 μL samples were incubated with 7 μL of the freshly prepared mixture containing donor and acceptor beads. Plates were incubated at room temperature and read with the Envision system (PerkinElmer Life Sciences) using AlphaScreen settings.
All data are presented as mean ± SEM of three independent experiments with biological triplicates. Statistical analyses were performed in Microsoft Office Excel 2019 or GraphPad Prism 7.0c version (Prism, GraphPad Software, San Diego, CA). Neurite outgrowth data were analyzed by one-way ANOVA with Newman-Keuls multiple comparison test as appropriate; P value <0.05 was considered statistically significant. *P < 0.05, **P < 0.01. Data for X-Gal and ERK1/2 phosphorylation were analyzed using sigmoidal dose–response analysis of log (agonist) versus response curve (stimulation).

RARα [2] = biological target: T1, RARα (Homo sapiens, UniProt P10276); assay: Fluorescence competition binding assay (displacement of DC271); conditions: for pKd: 100 nM RAR and DC271 on plate, read-out: Binding KD (± SD) RARα; for ΔGEXP RARα: experimental binding free energy from K D, ΔGexp=−RT ln K, 298.1 K
Chain of RARα (P10276 182-417): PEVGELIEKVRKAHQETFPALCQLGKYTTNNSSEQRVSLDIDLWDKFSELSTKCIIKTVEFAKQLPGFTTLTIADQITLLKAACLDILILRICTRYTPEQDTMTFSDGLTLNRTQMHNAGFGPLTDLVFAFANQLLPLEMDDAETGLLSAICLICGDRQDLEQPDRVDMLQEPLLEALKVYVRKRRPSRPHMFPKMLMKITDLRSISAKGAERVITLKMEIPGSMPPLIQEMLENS
T1 construct: His6-3C-NusA (cleaved yes); made in house; host or cells: E. coli BL21(DE3), pET50b vector
T1 sequence (P10276 183-417 limits assumed): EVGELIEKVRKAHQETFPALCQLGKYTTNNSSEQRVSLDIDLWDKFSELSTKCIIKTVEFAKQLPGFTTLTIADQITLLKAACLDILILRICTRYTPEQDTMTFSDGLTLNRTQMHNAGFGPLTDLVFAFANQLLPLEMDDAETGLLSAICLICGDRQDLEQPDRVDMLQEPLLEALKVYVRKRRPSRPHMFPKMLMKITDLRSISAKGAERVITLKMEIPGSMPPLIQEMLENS
Method: (§1) Fluorescence competition assays were employed to determine the relative binding affinities of each synthetic retinoid toward the LBD of the RARs. The assay is based on the potential for competitive displacement of the inherently fluorescent retinoid DC271 from the LBP by a test nonfluorescent synthetic retinoid. Changes in the fluorescence were measured following the addition of a serial dilution of the test compound and the results were plotted to generate a binding curve. […] Assays were performed for both RARα and RARγ. […] Nonlinear least-squares regression analyses were performed to calculate binding affinities and reported as binding K D, the equilibrium dissociation constant between the RAR isoform and the test synthetic retinoid.
(§2) RARα/γ proteins were expressed in BL21(DE3) cells (NEB) transformed into pET50b (Novagen) and pOPINS3C vectors, respectively, carrying the gene construct and containing a His6-3C-NusA tag or His6-3C-SUMO tag used for solubility. Transformations were carried out under standard conditions using Quick Transformation Protocol (New England Biolabs). Successful transformants were grown overnight in 2xYT media (Melford) and frozen for storage at −80 °C in 50% glycerol. Expression cultures were inoculated from glycerol stocks into 25 mL of 2xYT media (Melford) with 50 μg/mL kanamycin or 100 μg/mL ampicillin (Sigma-Aldrich) and grown overnight with shaking (37 °C, 150 rpm). The overnight cultures were transferred into 1 L expression flasks (2xYT/ampicillin 100 μg/mL or 2xYT/kanamycin 50 μg/mL) and grown with shaking at 37 °C, 150 rpm. Induction was carried out at an OD600 of 0.6–0.8, with 1 mL of 1 M IPTG (1 mM in culture), before shaking overnight (20 h) at 18 °C. The resulting cultures were spun down into pellets using an Avanti Hi-Speed centrifuge (JLA 8.1000, 4000 rpm, 30 min, 4 °C), before the supernatant was removed and the bacterial pellet were frozen at −80 °C.
(§3) RARα/γ (pET50b or pOPINS3C, BL21(DE3) (NEB)) were resuspended from pellet with 20 mL Wash Buffer (20 mM Tris-HCl, 300 mM NaCl and 20 mM imidazole, pH 8) and the resulting suspension was sonicated on ice (40% power, 2 min, repeated twice with 1 min rest in-between) before centrifuging (Avanti Hi-Speed JA25.50, 20,000 rpm, 1 h, 4 °C). Supernatants were clarified using 0.45 μm syringe filters (Thermo Fisher Scientific). Affinity chromatography and size-exclusion (SEC) chromatography were carried out on AKTA Pure25 (Cytiva). Supernatants were loaded onto the HisTrap HP column (5 mL, Cytiva) and washed using 25 mL of wash Buffer. The column was washed with Wash Buffer until UV trace returned to baseline, before RARα/γ was eluted using a gradient of Elution Buffer (20 mM Tris-HCl, 300 mM NaCl, 500 mM imidazole pH 8). The resulting protein-containing fractions were analyzed by SDS-PAGE (200 V, 30 min) using SurePAGE Bis-Tris 12% precast gels (Genscript). Protein concentrations were estimated using absorbance at 280 nm on a DS-11 spectrophotometer (Denovix) with calculated molecular weights and extinction coefficients (Expasy). RAR proteins were cleaved overnight from 3C-NusA tag or 3C-SUMO-His tag using 1 Unit/100 μg protein of HRV3C protease (Thermo Fisher Scientific) at 4 °C. Solution after digestion was loaded onto a HiLoad 16/600 Superdex 75 prep-grade column (Cytiva) and cleaved RARα/γ was separated from the tag based on molecular weight and eluted from the column using SEC Buffer (20 mM Tris-HCl, 300 mM NaCl and 0.5 mM TCEP, pH 8) into 2 mL fractions. The resulting protein fractions were analyzed by SDS PAGE (200 V, 30 min) using SurePAGE Bis-Tris 12% precast gels (Genscript), before being concentrated to 5 mg/mL using centrifugal concentrators (Sartorius) and frozen at −80 °C in small aliquots for use in binding assays.

RARα [3] = assay: as above; parameters: species or system human; conditions: log-log plot of K D for RARα and RARγ
Method: as §1, §2, §3

SMILES	pEC50 ([1]; SH-SY5Y cells, 1 h)	induction of ERK1/2 phosphorylation (nongenomic activity) ([1]; SH-SY5Y cells, 1 h)	nongenomic response Emax (±95% CI) ([1]; SH-SY5Y cells, 1 h)	nongenomic E max compared with ATRA [1]	pKd (RARα [2])	ΔGEXP RARα (RARα [2])	binding preference RARα versus RARγ (from K D) (RARα [3])	nongenomic response EC50 (±95% CI) ([1]; SH-SY5Y cells, 1 h)
CC1(C)CCC(C)(C)c2nc(C#Cc3ccc(C(=O)O)cc3)cnc21 [Compound 30, 4-[2-(5,5,8,8-Tetramethyl-5,6,7,8-tetrahydroquinoxalin-2-yl)ethynyl]benzoic Acid]	8.07	showed activity toward the nongenomic pathway	91.6 (±3.21)	E max values significantly higher than ATRA	6.81	-9.29 kcal/mol	close to the plotted line representing equal binding affinity for RARα and RARγ	–
CC1(C)CCC(C)(C)c2cc(C#Cc3cc(F)c(C(=O)O)c(F)c3)ccc21 [Compound 15, 2,6-Difluoro-4-[2-(5,5,8,8-tetramethyl-5,6,7,8-tetrahydronaphthalen-2-yl)ethynyl]benzoic Acid]	6.90	showed activity toward the nongenomic pathway	76.2 (±5.47)	E max values significantly higher than ATRA	9.43	-13.0 kcal/mol	strongly binds both RARα and RARγ	–
CC1(C)CCC(C)(C)c2cc(C#Cc3ccc(C(=O)O)c(F)c3)ccc21 [Compound 13, 2-Fluoro-4-[2-(5,5,8,8-tetramethyl-5,6,7,8-tetrahydronaphthalen-2-yl)ethynyl]benzoic Acid]	8.61	–	43.4 (±1.81)	E max values significantly lower than ATRA	7.87	-10.8 kcal/mol	close to the plotted line representing equal binding affinity for RARα and RARγ	–
COc1cc2c(cc1C#Cc1ccc(C(=O)O)cn1)C(C)(C)CCC2(C)C [Compound 27, 6-[2-(3-Methoxy-5,5,8,8-tetramethyl-5,6,7,8-tetrahydronaphthalen-2-yl)ethynyl]pyridine-3-carboxylic Acid]	–	lacked nongenomic activity	no response	–	5.74	-7.84 kcal/mol	close to the plotted line representing equal binding affinity for RARα and RARγ	no response
Cc1cc2c(cc1C#Cc1ccc(C(=O)O)cn1)C(C)(C)CCC2(C)C [Compound 26, 6-[2-(3,5,5,8,8-Pentamethyl-5,6,7,8-tetrahydronaphthalen-2-yl)ethynyl]pyridine-3-carboxylic Acid]	6.34	–	56.4 (±6.36)	E max values significantly higher than ATRA	7.32	-10.0 kcal/mol	bind RARα preferentially over RARγ	–
CC1(C)CCC(C)(C)c2cc(C#Cc3ccc(C(=O)O)cc3F)ccc21 [Compound 14, 3-Fluoro-4-[2-(5,5,8,8-tetramethyl-5,6,7,8-tetrahydronaphthalen-2-yl)ethynyl]benzoic Acid]	7.56	–	50.7 (±2.51)	–	7.51	-10.3 kcal/mol	bind RARγ stronger than RARα	–
Cc1cc2c(cc1C#Cc1ccc(C(=O)O)cc1F)C(C)(C)CCC2(C)C [Compound 18, 3-Fluoro-4-[2-(3,5,5,8,8-pentamethyl-5,6,7,8-tetrahydronaphthalen-2-yl)ethynyl]benzoic Acid]	7.88	–	40.1 (±1.86)	E max values significantly lower than ATRA	7.74	-10.6 kcal/mol	close to the plotted line representing equal binding affinity for RARα and RARγ	–
Cc1sc(-c2ccc(C(=O)O)c(F)c2)nc1-c1cnc2c(n1)C(C)(C)CCC2(C)C [Compound 42, 2-Fluoro-4-[5-methyl-4-(5,5,8,8-tetramethyl-5,6,7,8-tetrahydroquinoxalin-2-yl)-1,3-thiazol-2-yl]benzoic Acid]	7.90	–	54.1 (±4.07)	–	6.79	-9.27 kcal/mol	close to the plotted line representing equal binding affinity for RARα and RARγ	–
